Reference: article PMC7503500, “A Structure-Activity Relationship Comparison of Imidazodiazepines Binding at Kappa, Mu, and Delta Opioid Receptors and the GABAA Receptor” (Molecules, 2020)
Like-named read-outs stand apart in the source and are kept apart here.

How the values were obtained:
[1] = tested on: synaptic benzodiazepine-sensitive receptors (BZR), GABAAR; assay: 3H-flunitrazepam binding, rat brain homogenate; conditions: for BZR % (percent inhibition): at 10,000 nM; for Ki: read-out: BZR (Ki)
κ opioid receptor (KOR) = κ opioid receptor (KOR) (Homo sapiens, UniProt P41145); assay: Radioligand competition binding, KOR ([3H]-U69593), HEK293 cell homogenates; conditions: for inhibition at 10 µM: read-out: KOR % (percent inhibition), at 10,000 nM; for inhibition at 10 µM / KOR % (percent inhibition): [3H]-U69593; for KOR % (percent inhibition): at 10,000 nM
δ opioid receptor (DOR) = δ opioid receptor (DOR) (Homo sapiens, UniProt P41143); assay: Radioligand competition binding, DOR ([3H]-DADLE), HEK293 cell homogenates; conditions: for inhibition at 10 µM: read-out: DOR % (percent inhibition), at 10,000 nM; for DOR % (percent inhibition): at 10,000 nM
µ opioid receptor (MOR) = µ opioid receptor (MOR) (Homo sapiens, UniProt P35372); assay: Radioligand competition binding, MOR ([3H]-DAMGO), HEK293 cell homogenates; conditions: [3H]-DAMGO; for inhibition at 10 µM: read-out: MOR % (percent inhibition), at 10,000 nM; for MOR % (percent inhibition): at 10,000 nM
[2] = read-out: KOR (Ki), [3H]-U69593, HEK293 homogenates

Structure (SMILES)	BZR % (percent inhibition) [1] [%]	Ki [1] [nM]	Ki (κ opioid receptor (KOR)) [nM]	inhibition at 10 µM (κ opioid receptor (KOR)) [%]	inhibition at 10 µM (δ opioid receptor (DOR)) [%]	inhibition at 10 µM (µ opioid receptor (MOR)) [%]	KOR % (percent inhibition) (κ opioid receptor (KOR)) [%]	Ki (κ opioid receptor (KOR); [2]) [nM]	DOR % (percent inhibition) (δ opioid receptor (DOR)) [%]	MOR % (percent inhibition) (µ opioid receptor (MOR)) [%]	KOR affinity (in words) (κ opioid receptor (KOR); screening at 10,000 nM)	Affinity towards KOR as % of the GL-I-30-KOR binding affinity (κ opioid receptor (KOR)) [%]
CCNC(=O)c1ncn2c1[C@@H](C)N=C(c1ccccc1F)c1cc(C3CC3)ccc1-2 [GL-III-68]	100	452	150	88	10	0	–	–	–	–	–	–
C[C@H]1N=C(c2ccccc2F)c2cc(Br)ccc2-n2cnc(C(=O)N(C)C)c21 [GL-III-69]	100	446	511	75	10	0	–	–	–	–	–	–
C[C@H]1N=C(c2ccccc2F)c2cc(C3CC3)ccc2-n2cnc(C(=O)N(C)C)c21 [GL-III-70]	100	3400	800	68	50	0	–	–	–	–	–	–
C#Cc1ccc2c(c1)C(c1ccccc1F)=N[C@H](C)c1c(-c3cnco3)ncn1-2 [GL-III-73]	65	602	–	–	–	–	74	449	4	12	–	–
C[C@@H]1N=C(c2ccccc2F)c2cc(Br)ccc2-n2cnc(-c3cnco3)c21 [GL-III-76]	100	120	–	–	–	–	83	221	0	3	–	–
C#Cc1ccc2c(c1)C(c1ccccc1F)=N[C@@H](C)c1c(-c3cnco3)ncn1-2 [GL-III-78]	101	261	–	–	–	–	74	451	9	10	–	–
C#Cc1ccc2c(c1)C(c1ccccc1F)=NCc1c(-c3cnco3)ncn1-2 [KRM-II-18B]	97	38	361	89	20	11	–	–	–	–	–	–
Brc1ccc2c(c1)C(c1ccccc1)=NCc1c(-c3cnco3)ncn1-2 [KRM-II-73]	97	45	736	83	32	11	–	–	–	–	–	–
Cc1ncoc1-c1ncn2c1CN=C(c1ccccn1)c1cc(Br)ccc1-2 [KRM-II-81]	86	294	–	46	15	7	–	–	–	–	insignificant KOR affinity	–
C#Cc1ccc2c(c1)C(c1ccccc1)=NCc1c(-c3cnco3)ncn1-2 [KRM-II-82]	95	96	1200	78	20	5	–	–	–	–	–	–
Brc1ccc2c(c1)C(c1ccccn1)=NCc1c(-c3cnco3)ncn1-2 [KRM-II-97]	93	140	1960	62	8	18	–	–	–	–	–	–
Cc1ncoc1-c1ncn2c1CN=C(c1ccccc1F)c1cc(Br)ccc1-2 [KRM-III-59]	96	20	408	73	11	0	–	–	–	–	–	–
C#Cc1ccc2c(c1)C(c1ccccc1F)=NCc1c(-c3ocnc3C)ncn1-2 [KRM-III-65]	96	45	879	64	16	0	–	–	–	–	–	–
Cc1ncoc1-c1ncn2c1CN=C(c1ccccc1)c1cc(Br)ccc1-2 [KRM-III-66]	86	49	756	67	11	12	–	–	–	–	–	–
C#Cc1ccc2c(c1)C(c1ccccn1)=NCc1c(-c3cnco3)ncn1-2 [KRM-III-67]	71	144	–	48	3	30	–	–	–	–	–	–
C#Cc1ccc2c(c1)C(c1ccccn1)=NCc1c(-c3ocnc3C)ncn1-2 [KRM-III-79]	81	308	–	9	1	32	–	–	–	–	–	–
C#Cc1ccc2c(c1)C(c1ccccn1)=NCc1c(C(=O)OC(C)C)ncn1-2 [MP-II-068]	97	42	550	85	34	0	–	–	–	–	–	4.9

Structure (SMILES)	BZR % (percent inhibition) [1] [%]	Ki [1] [nM]	Ki (κ opioid receptor (KOR)) [nM]	inhibition at 10 µM (κ opioid receptor (KOR)) [%]	inhibition at 10 µM (δ opioid receptor (DOR)) [%]	inhibition at 10 µM (µ opioid receptor (MOR)) [%]	KOR % (percent inhibition) (κ opioid receptor (KOR)) [%]	Ki (κ opioid receptor (KOR); [2]) [nM]	DOR % (percent inhibition) (δ opioid receptor (DOR)) [%]	MOR % (percent inhibition) (µ opioid receptor (MOR)) [%]	KOR affinity (in words) (κ opioid receptor (KOR); screening at 10,000 nM)	Affinity towards KOR as % of the GL-I-30-KOR binding affinity (κ opioid receptor (KOR)) [%]
C#Cc1ccc2c(c1)C(c1ccccc1F)=NCc1c(C(=O)OCc3ccccc3)ncn1-2 [MP-II-075]	98	21	–	84	16	0	–	547	–	–	–	–
C#Cc1ccc2c(c1)C(c1ccccc1F)=N[C@H](C)c1c(C(=O)OC)ncn1-2 [MP-III-004]	78	445	599	76	24	0	–	–	–	–	–	–
C#Cc1ccc2c(c1)C(c1ccccc1F)=N[C@@H](C)c1c(C(N)=O)ncn1-2 [MP-III-018.B]	97	17	2780	51	10	2	–	–	–	–	–	–
C#Cc1ccc2c(c1)C(c1ccccc1F)=N[C@H](C)c1c(C(N)=O)ncn1-2 [MP-III-019.B]	94	54	1530	62	0	2	–	–	–	–	–	–
C#Cc1ccc2c(c1)C(c1ccccc1F)=N[C@@H](C)c1c(C(=O)OC)ncn1-2 [MP-III-021]	88	219	122	93	22	0	–	–	–	–	–	–
C#Cc1ccc2c(c1)C(c1ccccc1F)=N[C@H](C)c1c(C(=O)NC)ncn1-2 [MP-III-022]	95	83	–	80	22	3	–	–	–	–	–	–
C#Cc1ccc2c(c1)C(c1ccccc1F)=N[C@@H](C)c1c(C(=O)NC)ncn1-2 [MP-III-023]	97	37	119	91	16	0	–	–	–	–	–	–
C#Cc1ccc2c(c1)C(c1ccccn1)=NCc1c(C(=O)OC)ncn1-2 [MP-III-024]	81	277	–	43	24	0	–	–	–	–	–	–
COC(=O)c1ncn2c1[C@@H](C)N=C(c1ccccc1F)c1cc(Br)ccc1-2 [MP-III-058]	86	290	237	84	4	0	–	–	–	–	–	–
C#Cc1ccc2c(c1)C(c1ccccn1)=NCc1c(-c3nc(CC)no3)ncn1-2 [MP-III-080]	88	303	–	47	0	0	–	–	–	–	–	–
C#Cc1ccc2c(c1)C(c1ccccn1)=NCc1c(-c3nc(C)no3)ncn1-2 [MP-III-085]	82	357	–	40	0	0	–	–	–	–	–	–
C#Cc1ccc2c(c1)C(c1ccccc1F)=N[C@H](C)c1c(-c3nc(C)no3)ncn1-2 [MP-IV-004]	63	1080	–	–	–	–	86	444	10	7	–	–
C#Cc1ccc2c(c1)C(c1ccccc1F)=N[C@H](C)c1c(-c3nc(C(C)C)no3)ncn1-2 [MP-IV-010]	64	814	–	–	–	–	94	145	5	33	–	–
C#Cc1ccc2c(c1)C(c1ccccc1F)=N[C@H](C)c1c(C(=O)O)ncn1-2 [SH-053-2′F-R-CH3-Acid]	93	37	–	16	0	0	–	–	–	–	–	–
C#Cc1ccc2c(c1)C(c1ccccc1F)=N[C@H](C)c1c(C(=O)OCC)ncn1-2 [SH-053-2′F-R-CH3]	85	379	240	89	32	28	–	–	–	–	–	–
C#Cc1ccc2c(c1)C(c1ccccc1F)=N[C@@H](C)c1c(C(=O)O)ncn1-2 [SH-053-2′F-S-CH3-Acid]	93	29	–	20	18	0	–	–	–	–	–	–
C#Cc1ccc2c(c1)C(c1ccccc1F)=N[C@@H](C)c1c(C(=O)OCC)ncn1-2 [SH-053-2′F-S-CH3]	92	111	90	93	36	7	–	–	–	–	–	–
